Here are results for four compounds from patent publication US6541506B1, “Antifungal enediynes” (Phytera Incorporated, priority 1999, dated 2003).

The test system of assay [1] is C. albicans DSY1024. The assay is described as follows: Candida growth inhibition (XTT), C. albicans DSY1024. As to conditions: C. albicans DSY1024 (Table 4). In kind it is cell-based. As for the experimental part: (§1) There are numerous assays that can be used to measure the inhibition of growth of a fungus such as Candida. In one example, cultures of Candida, e.g., C. albicans strains DSY1024 and SC5314, C. krusei ATCC 6258, and C. glabrata ATCC 90030, are subcultured from cryopreserved stocks onto Sabouraud's dextrose agar plates. Blastoconidia are suspended into RPMI-MOPS medium and inoculated (500 cfu/well) into 96-well plates containing test compounds in a final volume of 100 μL/well. After 22 hours at 35° C., 25 μL of XTT (2,3-bis(2-methoxy-4-nitro-5-sulfophenyl)-5-(phenylamino)carbonyl]-2H-tetrazolium hydroxide), (100 μg/mL) with PMS (phenazine methyl sulfate, 5 μM) are added to each well, followed by 2 hours of shaking. Growth is assessed spectrophotometrically by measuring the appearance of soluble formazan stain at 450 nm using an Emax microplate reader. Validity of the assay is confirmed by determination of the C. albicans minimum inhibitory concentration (MIC) for known antifungal agents such as amphotericin B, 5-flucytosine, fluconazole, nikkomycin Z, and polyoxin D.
LP416E8 (AC-05081-T4-3) was an organic extract of a manipulated plant cell culture from A. corsicum.
Background: Tetrazolium dyes change colour on reduction, which living cells bring about.

In assay [2] the test system is C. albicans SC5314. The assay is described as follows: Candida growth inhibition (XTT), C. albicans SC5314. As to conditions: for IC50 / MIC: C. albicans SC5314 (Table 4). The class given is cell-based. How it is done:
as §1

Assay [3] deals with M. canis. The assay is described as follows: Dermatophyte growth inhibition (microdilution, NCCLS M27A), M. canis. In kind it is cell-based, Microsporum canis. As for the experimental part: (§2) The compounds of the invention are also effective against dermatophytes. Testing was performed using a microdilution method based on the NCCLS M27A antifungal protocol. Compounds to be tested were prepared in DMSO and diluted to the appropriate concentration in RPMI 1640 medium (the dermatophyte growth medium). An inoculum of each test organism was prepared from oatmeal agar plates to contain 0.5-2.5×10^3 conidia/mL. One hundred microliters of the inoculum was added to each well of a 96-well microtiter plate containing 4 μL of a test compound and 96 μL of RPMI 1640. Terbinafine (sold under the brand name Lamisil®) was used as a positive control.
(In general: Broth dilution looks for growth in wells or tubes with falling amounts of substance.)

Assay [4] concerns T. mentagrophytes. The assay is described as follows: Dermatophyte growth inhibition (microdilution, NCCLS M27A), T. mentagrophytes. In kind it is cell-based. How it is done: as §2
Assay [5] concerns T. tonsurans. The assay is described as follows: Dermatophyte growth inhibition (microdilution, NCCLS M27A), T. tonsurans. The class given is cell-based. How it is done:
as §2

The test system of assay [6] is Candida. As to the kind of experiment: Anti-Candida activity by backbone length. As to conditions: X=7. The class given is cell-based. An excerpt: The variable X denotes the length of a saturated carbon backbone. The antifungal activity of the claimed compounds changes in part based on the length of this backbone. […] Preferably, X is an integer between 5 and 7, inclusive, although longer carbon chains (X=8-10) may preserve or increase antifungal activity.

Assay [7] deals with T. rubrum. The assay is described as follows: Dermatophyte growth inhibition (microdilution, NCCLS M27A), T. rubrum. The class given is cell-based, Trichophyton rubrum. As for the experimental part:
as §2

For assay [8], the system named is C. albicans UTR-14 (fluconazole-resistant clinical isolate). The assay is described as follows: Fluconazole-resistant candidiasis in mice. In kind it is in vivo. As to conditions: fluconazole-resistant C. albicans UTR-14, 40 mg per kg body weight p.o. twice daily. As for the experimental part:
In a similar experiment using a fluconazole-resistant clinical isolate (e.g., C. albicans UTR-14), the percent survival after 20 days of the group treated with fluconazole (40 mg per kg body weight p.o. (twice daily)) and in the untreated group is each usually 0%.

Assay [9] relates to C. albicans strain #64 (sensitive to fluconazole). Further details: species or system mice. As to conditions: mouse, in vivo. As for the experimental part:
Immunocompetent mice (ICR, Sprague-Dawley, Indianapolis, Ind.) are infected with a pathogenic strain (e.g., strain #64) of C. albicans that is sensitive to fluconazole. After 24 hours, dissemination of infection has been shown by organ colony counts (kidney, spleen, and liver) greater than 10^5 colony forming units (CFU). Treatment is begun 24 hours after infection with dosage once a day for 10 days. Untreated control mice usually die after about 16 days. After 30 days the percent survival in the group treated with fluconazole (40 mg per kg body weight, twice a day) is about 30%. In addition to measuring animal viability, the organ fungal load (in CFU) can measured.

Values after ≈ are worked out from the molar mass of the structure shown.

With `C/C=C\C#CC#C/C=C/C(O)CCCCCCCC(=O)O` (stereo not drawn) [Compound 6], in assay [1], the IC50 (usually the concentration needed to halve the response being measured) is 11300 ng/mL (≈ 39.2 µM) and the MIC (commonly the smallest concentration in the dilution series that meets the test's criterion for growth inhibition) stood at 12500 ng/mL (≈ 43.3 µM). Moreover, in [2], the “inhibition of growth of strain SC5314” value was “able to inhibit growth”, the IC50 was 8500 ng/mL (≈ 29.5 µM) and the MIC stood at 12500 ng/mL (≈ 43.3 µM).

In the case of `COC(=O)CCCCCCC/C=C\C#CC#Cc1ccco1` [Compound 7], the MIC amounted to 0.125 µg/mL (≈ 0.419 µM) in assay [3] (M. canis, four days at 35° C., visual inspection); 250 ng/mL (≈ 0.838 µM) in [1]; 125 ng/mL (≈ 0.419 µM) in [4] (T. mentagrophytes, four days at 35° C., visual inspection); 250 ng/mL (≈ 0.838 µM) in assay [2]; 0.125 µg/mL (≈ 0.419 µM) in assay [5] (T. tonsurans, four days at 35° C., visual inspection); 125 ng/mL (≈ 0.419 µM) in assay [7] (T. rubrum, four days at 35° C., visual inspection). For the same compound, the IC50 in assay [1] came to 190 ng/mL (≈ 0.637 µM); in assay [2], 221 ng/mL (≈ 0.741 µM). The “inhibition of growth of strain SC5314” value in assay [2] was “able to inhibit growth”. Also, in [6], the “anti-Candida activity (ranking by backbone length X)” value was “greatest anti-Candida activity”.

As for `CN(C/C=C/C#CC(C)(C)C)Cc1cccc2ccccc12` [Terbinafine, reference compound], the MIC in [3] (Microsporum canis, 96 h) came out at 0.015 µg/mL (≈ 0.0515 µM); in [4] (Trichophyton mentagrophytes, 96 h), 4 ng/mL (≈ 0.0137 µM); in [5] (Trichophyton tonsurans, 96 h) it was 0.015 µg/mL (≈ 0.0515 µM); in [7] (Trichophyton rubrum, 96 h) it was 2 ng/mL (≈ 0.00686 µM).

As to `OC(Cn1cncn1)(Cn1cncn1)c1ccc(F)cc1F` [fluconazole], the “percent survival after 20 days” value in [8] is 0%. Besides, in assay [9], the “percent survival after 30 days” value is listed as “about 30%”.
